Our source for the IC50 and Activity values is ChEMBL document CHEMBL1159271, “A reinvestigation of Maprounea triterpenes” (J Nat Prod, 1995).

pIC50: −log10 of the molar value. Active and inactive are the calls of the source. No cut-off for these calls is given here.

Assay [1] addresses T1, Human immunodeficiency virus type 1 reverse transcriptase (Human immunodeficiency virus 1, UniProt Q72547). Put plainly: Inhibition of HIV1 recombinant reverse transcriptase by UIC assay.
A further assay is filed under the species Rattus norvegicus. Put plainly: Displacement of [3H]phorbol dibutyrate from rat brain membrane. The class given is tissue-based. Background: Displacement assays read how much labelled ligand stays bound in the presence of the test substance.
In assay [2] the target is T1, Human immunodeficiency virus type 1 reverse transcriptase. Put plainly: Inhibition of HIV1 recombinant reverse transcriptase by NCI assay.

One may read the pIC50 as the negative decadic logarithm of the IC50, by convention in mol/L. Consider `CC1(C)CC[C@]2(C(=O)O)CC=C3[C@]4(C)CC[C@H]5C(C)(C)[C@@H](OC(=O)c6ccc(O)cc6)C[C@@H](O)[C@]5(C)[C@H]4CC[C@@]3(C)[C@H]2C1`, for which the pIC50 is 5.43 in assay [1] and less than 4.00 in assay [2]. Further, in the assay filed under Rattus norvegicus, the result was Active.
Turning to `CC1(C)CC[C@]2(C(=O)O)CC=C3[C@]4(C)CC[C@H]5C(C)(C)[C@@H](O)C[C@@H](O)[C@]5(C)[C@H]4CC[C@@]3(C)[C@H]2C1`, the negative logarithm of the IC50 (pIC50) in assay [1] is 5.31.
For the compound `CC1(C)CC[C@]2(C(=O)O)CC=C3[C@]4(C)CC[C@H]5C(C)(C)[C@@H](OC(=O)c6ccc(O)cc6)CC[C@]5(C)[C@H]4CC[C@@]3(C)[C@H]2C1`, the pIC50 in assay [1] was 4.97; in assay [2] it was 3.70.
As for `CC1(C)CC[C@]2(C(=O)O)CC=C3[C@]4(C)CC[C@H]5C(C)(C)[C@@H](OC(=O)/C=C/c6ccc(O)cc6)CC[C@]5(C)[C@H]4CC[C@@]3(C)[C@H]2C1`, the results for the pIC50 in assay [1] and in assay [2] were 4.94 and 4.22, respectively.
Turning to `CC1(C)CC[C@]2(C(=O)O)CC=C3[C@]4(C)CC[C@H]5C(C)(C)[C@@H](O)[C@H](OC(=O)c6ccc(O)cc6)C[C@]5(C)[C@H]4CC[C@@]3(C)[C@H]2C1`, the values for the negative-log IC50 (pIC50) in assay [1] and in assay [2] were 4.28 and less than 3.70, respectively.
As to `CC1(C)CC[C@]2(C(=O)O)CC=C3[C@]4(C)CC[C@H]5C(C)(C)[C@@H](OC(=O)c6ccc(O)cc6)[C@H](O)C[C@]5(C)[C@H]4CC[C@@]3(C)[C@H]2C1`, the results for the pIC50 in assay [1] and in assay [2] were 4.84 and less than 3.70, respectively.
As for `CC1(C)CC[C@]2(C(=O)O)CC=C3[C@]4(C)CC[C@H]5C(C)(C)[C@@H](OC(=O)c6ccc(O)cc6)[C@H](OC(=O)c6ccc(O)cc6)C[C@]5(C)[C@H]4CC[C@@]3(C)[C@H]2C1`, the results for the pIC50 in assay [1] and in assay [2] were 5.10 and 4.22, respectively.
Take `CC1(C)CC[C@]2(C(=O)O)CC=C3[C@]4(C)CC[C@H]5C(C)(C)C[C@H](O)[C@@H](O)[C@]5(C)[C@H]4CC[C@@]3(C)[C@H]2C1`: the results for the pIC50 in assay [1] and in assay [2] were 5.47 and less than 4.00, respectively.
Turning to `CC1(C)CC[C@]2(C(=O)O)CC=C3[C@]4(C)CC[C@H]5C(C)(C)[C@H](O)[C@@H](OC(=O)c6ccc(O)cc6)C[C@]5(C)[C@H]4CC[C@@]3(C)[C@H]2C1`, the pIC50 in assay [1] was 4.82; in assay [2], 4.40.
